Series [1] can be described thus: Plasma binding determination by plasma ultrafiltration, neonatal pig. The class given is in vitro ADME. As to conditions: female, 37° C., read-out: % Bound Mean (converted).
Description: Plasma ultrafiltrate blank samples were prepared by thawing frozen plasma and then pre-warming plasma in a humidified 5% CO2 chamber at 37 C for 60 minutes. Aliquots of 800 ul were transferred to Centrifree Centrifugal Filters (Ultracel regenerated cellulose (NMWL 30,000 amu) Lot R5JA31736) and centrifuged at 2900 RPM at 37 C for 10 minutes; plasma water filtrates were collected and used in preparation of standards, blanks and QC standards.
Plasma Binding Determination. […] Plasma samples were pre-warmed for 60 minutes in a humidified, 5% CO2 incubator maintained at 37° C. […] Spiked plasma samples were incubated on a rotary mixer in a humidified 5% CO2 chamber at 37° C. for a minimum of 60 minutes. After 60 minutes, three 800 ul aliquots of each sample were added to Centrifree centrifugal filters. The filters were subjected to centrifugation at 2900 rpm for 10 minutes at 37° C. Three 100 ul aliquots of residual plasma were collected along with ultrafiltrate for bioanalysis.
Series [2] is described as follows: Brain binding determination by brain homogenate ultrafiltration, mouse. The format is in vitro ADME. As to conditions: 37° C., ultrafiltration; for fraction unbound at 60 min, 1 μM: male, CD-1, mouse, brain homogenate, pH 7.4, mouse brain homogenate. Here is the method: (§1) Animals and Tissue Preparation: Plasma from male CD-1 mice was obtained from BioreclamationIVT (Westbury, NY) and stored at −80° C. until use. Male CD-1 mouse brains were obtained from BioreclamationIVT (Westbury, NY).
Brains were weighed and homogenized with 1:9 phosphate-buffered saline, pH 7.4 using an Omni tissue homogenizer. Brains from four mice were homogenized, pooled and mixed to form one sample.
Pooled homogenized brains were pre-warmed for 60 minutes in a humidified, 5% CO2 incubator maintained at 37° C. […] Spiked pooled brain homogenates were placed on a Nutator mixer in a humidified, 5% CO2 incubator at 37° C. for 60 minutes. After 60 minutes, three 800 μL aliquots of each sample were added to Centrifree centrifugal filters. The filters were subjected to centrifugation at 2900 rpm for 10 minutes at 37° C. Aliquots of residual brain homogenate and ultrafiltrate were collected for bioanalysis.
(§2) Plasma and brain concentrations of MRS4322 and MRS5698 in spiked plasma, brain homogenates and associated ultrafiltrates were determined by LC-MS/MS utilizing tolbutamide as an internal standard. […] The following tables outline the LC and MS/MS conditions employed (Tables 7 and 8).
(§3) For each tissue matrix, standard curves were created and LLOQ/ULOQ concentrations determined. The calibration range for the MRS4322 and MRS5698 plasma concentration standard curves was 400-1200 nM. The calibration range for MRS4322 and MRS5698 plasma ultrafiltrate standard curves was 100-1200 nM. The calibration range for MRS4322 brain homogenate and brain homogenate ultrafiltrate standard curves were 400-1200 nM and 100-1200 nM, respectively. The calibration range for MRS5698 brain homogenate and brain homogenate ultrafiltrate standard curves were 400-1200 nM and 1-500 nM, respectively.

Series [3] can be described thus: Plasma binding determination by plasma ultrafiltration, mouse. The class given is in vitro ADME. As to conditions: for fraction unbound at 60 min, 1 μM: male, CD-1, mouse, plasma. Here is the method: as §1
Plasma ultrafiltrate blank samples were prepared by thawing frozen plasma and then pre-warming plasma in a humidified 5% CO2 chamber at 37° C. for 60 minutes. Aliquots of 800 μL were transferred to Centrifree Centrifugal Filters (Ultracel regenerated cellulose (NMWL 30,000 amu) Lot R5JA31736) and centrifuged at 2900 RPM at 37° C. for 10 minutes; plasma water filtrates were collected and used in preparation of standards, blanks and QC standards.
Plasma samples were pre-warmed for 60 minutes in a humidified, 5% CO2 incubator maintained at 37° C. […] Spiked plasma samples were incubated on a rotary mixer in a humidified 5% CO2 chamber at 37° C. for a minimum of 60 minutes. After 60 minutes, three 800 μL aliquots of each sample were added to Centrifree centrifugal filters. The filters were subjected to centrifugation at 2900 rpm for 10 minutes at 37° C. Three 100 μL aliquots of residual plasma were collected along with ultrafiltrate for bioanalysis.
as §2, §3

A short description of series [4]: Pharmacokinetics of MRS4322 following intraperitoneal administration of MRS2365 to mice. The format is in vivo. As to conditions: for Plasma Concentration Mean / Plasma Concentration by Subject / Brain Concentration Mean / Brain Concentration by Subject: analyte MRS4322, mice, MRS2365 0.24 mg/kg ip; for Plasma Concentration by Subject / Brain Concentration by Subject: subjects A-C. The method, then: Animals: Female C576BL/6J mice weighing approximately 0.02 Kg were used for this study, supplied by the University of Texas Health Sciences Center (San Antonio, TX). All studies were conducted under approved University of Texas Health Sciences Center IACUC protocols.
Drug Administration: MRS2365 was solubilized in phosphate-buffered saline and then diluted in phosphate-buffered saline to prepare dosing solution. Final dosing solution concentration of MRS2365 was 100 μM. A 100 μL volume of dosing solution was administered intraperitoneally to each mouse per 20 gram body weight; MRS2365 was administered intraperitoneally at 0.5 μmol/kg or 0.24 mg/kg. Three mice were administered MRS2365 for each sampling timepoint.
Tissue Sampling: Blood and brain samples were obtained at 0, 0.083, 0.25, 0.5, 1, 2 and 8 hours post-dose. At each timepoint, mice (3/timepoint) were euthanized in a […] chamber. Whole blood was obtained by cardiac puncture into Microtainer tubes containing heparin and immediately centrifuged for preparation of plasma; plasma was stored at −80° C. At each timepoint, whole brain samples were obtained by decapitation, rinsed in ice-cold phosphate-buffered saline and weighed. Brain samples were then immediately flash-frozen in liquid nitrogen and stored at −80° C.
The following table outlines the LC and MS/MS conditions employed:
The calibration range for the MRS4322 plasma concentration standard curve was 2.26-241 ng/mL. The calibration range for MRS4322 brain concentrations was 2.35-242 ng/mL.
For bioanalysis of brain concentrations of MRS4322, brain samples were homogenized in ice-cold phosphate-buffered saline in a 4× dilution. Aliquots of the resulting diluted brain homogenate were treated with acetonitrile and analyzed by LC-MS/MS. Because of the 4× homogenate dilution, the calibration range of the MRS4322 brain standard curve was translated to 9.40-968 ng/gm. In several samples, MRS4322 were detectable but fell below the brain LLOQ of 9.40 ng/gm but were above background; in these cases the final reported brain concentration was extrapolated based on MS peak heights.

For series [5], the target named is T1, mouse A3 adenosine receptor (Mus musculus, UniProt Q61618).
T1 construct: expressed in transfected cells; whole cells for cAMP
T1 sequence (Q61618 1-319): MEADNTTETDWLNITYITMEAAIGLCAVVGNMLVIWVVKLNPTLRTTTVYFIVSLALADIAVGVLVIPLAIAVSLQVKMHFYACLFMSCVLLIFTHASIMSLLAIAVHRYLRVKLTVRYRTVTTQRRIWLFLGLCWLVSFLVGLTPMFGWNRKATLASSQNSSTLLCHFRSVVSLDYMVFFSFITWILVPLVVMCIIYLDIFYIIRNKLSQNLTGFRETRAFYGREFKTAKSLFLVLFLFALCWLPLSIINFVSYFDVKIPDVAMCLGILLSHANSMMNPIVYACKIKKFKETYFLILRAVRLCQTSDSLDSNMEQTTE
Description: Competition binding versus [^3H]NECA at mouse A3 receptors expressed in CHO cells.

Where [6] appears, read: read-out: Fraction Unbound Mean.
[7] abbreviates: mouse plasma, 1 μM, 37° C., ultrafiltration, read-out: Fraction Unbound Mean.

In the case of `CSc1nc(N)c2ncn([C@H]3[C@H](O)[C@H](O)[C@]4(CO)C[C@H]34)c2n1` [MRS4322], in series [1], the fraction unbound at 60 min, 1 uM was 0.784. Moreover, the fraction unbound at 60 min, 1 μM is 0.13 in series [2] (read-out: % Bound Mean (converted)); 0.13 in series [2] (setting [6]); 0.742 in series [3] (mouse plasma, 1 μM, 37° C., ultrafiltration, read-out: % Bound Mean (converted)); 0.742 in series [3] (setting [7]). For the same compound, the “% Bound Mean” value in series [2] (mouse brain homogenate, 1 μM) is reported as 87.0%. Also, the “Fraction Unbound Mean” value was 0.130 in series [2] (mouse brain homogenate, 1 μM) and 0.74 in series [3] (mouse plasma, 1 μM, 37° C., ultrafiltration). Further, in series [3] (mouse models, from unbound fractions in plasma and brain), the “fraction available to interact with the A3 receptor relative to Cl-IB-MECA” value was “at least 1000 fold”. Also, the “Plasma Concentration Mean” value in series [4] (0 h) and in series [4] (8 h) was “BLQ” each time. In addition, the “Plasma Concentration by Subject” value in series [4] (0 h) and in series [4] (8 h) was “BLQ” in each case. The “Brain Concentration Mean” value in series [4] (0.083 h), in series [4] (1 h), in series [4] (2 h) and in series [4] (8 h) was “BLQ” in each case. For the same compound, the “Brain Concentration by Subject” value in series [4] (0.083 h), in series [4] (1 h), in series [4] (2 h) and in series [4] (8 h) was “BLQ” in each case. The Kp in series [4] (female, C57BL/6J, mouse, MRS4322 after MRS2365 ip to mice, based on mean Cmax concentrations in plasma and brain, read-out: brain/plasma ratio of total drug) was roughly 0.1. For the same compound, the Ki (in general, the dissociation constant of the complex between target and ligand, obtained from inhibition or displacement) in series [5] (read-out: Ki ± SEM, Mouse A3R, [^3H]NECA, CHO cell membrane preparations, [^3H]NECA (10 nM)) was 4.94 ± 0.974 µM.

`CSc1nc(N)c2ncn([C@H]3[C@H](O)[C@H](O)[C@]4(COP(=O)(O)OP(=O)(O)O)C[C@H]34)c2n1` [MRS2365]: the “metabolism following intraperitoneal administration to mice” value in series [4] (MRS2365 0.5 μmol/kg ip, comparison with equimolar MRS4322) was “rapidly and completely metabolized to MRS4322”.

Take `CNC(=O)[C@H]1O[C@@H](n2cnc3c(NCc4cccc(I)c4)nc(Cl)nc32)[C@H](O)[C@@H]1O` [Cl-IB-MECA, 2-Chloro-N^6-(3-iodobenzyl)-adenosine-5′-N-methyluronamide, reference compound]: the fraction unbound at 60 min, 1 μM in series [2] (setting [6]) and in series [3] (setting [7]) was 0.002 throughout. Besides, the “difference in affinity of Cl-IB-MECA and MRS4322 at mouse A3 receptor” value in series [5] (Cl-IB-MECA vs MRS4322) is “approximately 25,000 fold”.
